Data published in article PMC10820468, “Novel Dihydrocoumarins Induced by Radiolysis as Potent Tyrosinase Inhibitors” (Molecules, 2024).

Legend:
mushroom tyrosinase [1] = assay: Mushroom tyrosinase inhibition assay (L-DOPA substrate, DOPA chrome at 470 nm); type: biochemical; conditions: 37 °C, 30 min, pH 6.8, triplicate
Description: The tyrosinase inhibition assay was achieved according to a previously described method. Both the enzyme (tyrosinase, EC 1.14.18.1) and substrate (L-3,4-dihydroxyphenylalanine) (L-DOPA) were purchased from Sigma-Aldrich. All test compounds were first dissolved in 5% dimethyl sulfoxide (DMSO) (80 μL), and the tyrosinase inhibitory activity was evaluated at various concentrations (5 to 200 μM). The reaction mixture consisted of 40 μL of tyrosinase solution (125 unit/mL in 67 mM phosphate buffer, pH 6.8), 40 μL of L-DOPA (25 mM in 67 mM phosphate buffer, pH 6.8), and 80 μL of the test sample. After incubation at 37 °C for 30 min, the amount of released DOPA chrome was measured at 470 nm using an ELISA reader (Infinite F200, Tecan Austria GmBH, Grodig, Austria). The tyrosinase inhibition (%) was calculated, and the half-maximal inhibitory concentration (IC50) was evaluated using linear regression analysis of the inhibitory effects under the assay conditions. […] All assays were carried out in triplicate. Kinetic parameters were determined using the Lineweaver-Burk plots methods at increasing concentration of substrates and inhibitor. The data was calculated using Sigma-plot (SPCC Inc., Chicago, IL, USA).

mushroom tyrosinase [2] = assay: Inhibition kinetics of tyrosinase-mediated L-DOPA oxidation (Lineweaver-Burk plots); type: biochemical
Description: Tyrosinase is a metalloenzyme that plays a primary role in the production of melanin from tyrosine when the skin is exposed to UV rays. Tyrosinase-related protein-1 (TRP-1) and dopachrome tautomerase (TRP-2) result in the formation of melanin as eumelanin (which appears black and brown) and pheomelanin (which appears yellow and red). Tyrosinase is present in epidermal melanocytes as well as in the pigment epithelia of the retina, iris, and ciliary body of the eye, and is one of the chief enzymes responsible for skin pigmentation in mammals. Melanin production can be inhibited by suppressing tyrosinase activity, thereby preventing the induction of melasma, freckles, and senile […]. […] Radiocatalytic hydrogenated molecules 1–4 obtained in the present study were evaluated for their inhibitory capacities toward mushroom tyrosinase. […]
The tyrosinase inhibition assay was achieved according to a previously described method. […] All test compounds were first dissolved in 5% dimethyl sulfoxide (DMSO) (80 μL), and the tyrosinase inhibitory activity was evaluated at various concentrations (5 to 200 μM). […] After incubation at 37 °C for 30 min, the amount of released DOPA chrome was measured at 470 nm using an ELISA reader (Infinite F200, Tecan Austria GmBH, Grodig, Austria). […] The data was calculated using Sigma-plot (SPCC Inc., Chicago, IL, USA).

C[C@]1(CO)c2ccc(O)cc2OC(=O)[C@H]1CO (relative stereo) [Compound 2, Radiocoumarone B]
IC50 (mushroom tyrosinase [1]): 49 ± 1.3 µM

O=C1Oc2cc(O)ccc2[C@@](CO)(CCO)[C@@H]1CO (relative stereo) [Compound 3, Radiocoumarone C]
IC50 (mushroom tyrosinase [1]): 254.6 ± 2.1 µM

C[C@]1([C@@]2(C)c3ccc(O)cc3OC(=O)[C@H]2CO)c2ccc(O)cc2OC(=O)[C@H]1CO (relative stereo) [Compound 4, Radiocoumarone D]
Inhibition Type (mushroom tyrosinase [2]): Non-competitive | Ki (mushroom tyrosinase [2]): 16 µM | IC50 (mushroom tyrosinase [1]): 19.8 ± 0.5 µM

C[C@@]1(CO)CC(=O)Oc2cc(O)ccc21 (stereo in doubt) [Compound 1, Radiocoumarone A]
IC50 (mushroom tyrosinase [1]): 143 ± 1.5 µM

Cc1cc(=O)oc2cc(O)ccc12 [4-MUF (5), 4-methylumbelliferone, reference compound]
IC50 (mushroom tyrosinase [1]): > 500 µM
